System: female Sprague-Dawley mature and young adult rats
Assay: Ex vivo peripheral quantitative computed tomography (pQCT) of right femur (metaphysis, diaphysis, length)
Assay type: in vivo, rat
Conditions: Mature Adults; for pQCT femur (diaphysis) CSMI / pQCT femur (diaphysis) Cortical Area / pQCT femur (diaphysis) Cortical BMC / pQCT femur (diaphysis) Cortical BMD / pQCT femur (diaphysis) Cortical Thickness / pQCT femur (diaphysis) Endosteal Circumference / pQCT femur (diaphysis) Periosteal Circumference / pQCT femur (diaphysis) Total Area / pQCT femur (diaphysis) Total BMC / pQCT femur (diaphysis) Total BMD / pQCT femur Length / pQCT femur metaphysis C/SC (Cortical/Subcortical) BMC / pQCT femur metaphysis C/SC (Cortical/Subcortical) BMD / pQCT femur metaphysis Total Area / pQCT femur metaphysis Total BMC / pQCT femur metaphysis Total BMD / pQCT femur metaphysis Trabecular BMC / pQCT femur metaphysis Trabecular BMD: mean
Protocol: The following were evaluated: clinical signs (at least weekly), body weight (weekly), food consumption (weekly), hormones (Days 13 and 27), serum and urinary biochemical markers of bone turnover (Days 13 and 27), serum chemistry (at necropsy), bone densitometry by dual energy X-ray absorptiometry (DXA) and peripheral quantitative computed tomography (pQCT) (Week 2 and 4, as well as ex vivo), macroscopic observations at necropsy, organ weights, histopathology, biomechanical strength testing and femoral length measurements.
3.2 Ex Vivo Peripheral Quantitative Computed Tomography (pQCT)
Peripheral QCT scans were performed ex vivo using an XCT Research SA or SA+ bone scanner with software version 5.50D. Scans were obtained for the right femur, L3 and L4 lumbar vertebra for all animals euthanized at the end of the treatment period as well as two found dead animals. These two animals were scanned twice due to technical oversight, however only the first scans obtained were reported and the second scans were kept with the study file, this had no impact on the study as both scans were considered equivalent.
For the femurs, the scanned site was at the expected 3-point bending fracture site (diaphysis). This site was analyzed using Cortmode 2 for cortical bone measurements only (Table 5). An additional slice was obtained in the metaphysis. The metaphysis scan was not performed for the femur of three animals due to condyles detachment from the femur during trimming.
The femoral length was measured as part of the ex vivo pQCT scanning procedures and was reported for the right femur of all animals with the exception of 3 animas due to damaged femoral condyles.
All analyses were performed using the LOOP option of the analysis software. All other data generated as a result of the LOOP option were retained with the raw data but not reported. The most appropriate analysis mode for the femur and the lumbar vertebrae was used and documented in the raw data and the analysis details are presented in Table 6. All scan analysis data was retained and re-analyses documented.

COc1ccc(Cc2c(OC3OC(CO)C(F)C(O)C3O)n[nH]c2C(F)(F)F)cc1 (stereo not drawn) [Example 5 of formula II]
pQCT femur (diaphysis) CSMI, percent difference from Vehicle Control (10 mg/kg/day): 5.7%
pQCT femur (diaphysis) Cortical Area, percent difference from Vehicle Control (10 mg/kg/day): 2.3%
pQCT femur (diaphysis) Cortical BMC, percent difference from Vehicle Control (10 mg/kg/day): 2.7%
pQCT femur (diaphysis) Cortical BMD, percent difference from Vehicle Control (10 mg/kg/day): 0.5%
pQCT femur (diaphysis) Cortical Thickness, percent difference from Vehicle Control (10 mg/kg/day): 0.6%
pQCT femur (diaphysis) Endosteal Circumference, percent difference from Vehicle Control (10 mg/kg/day): 2.3%
pQCT femur (diaphysis) Periosteal Circumference, percent difference from Vehicle Control (10 mg/kg/day): 1.0%
pQCT femur (diaphysis) Total Area, percent difference from Vehicle Control (10 mg/kg/day): 3.1%
pQCT femur (diaphysis) Total BMC, percent difference from Vehicle Control (10 mg/kg/day): 3.0%
pQCT femur (diaphysis) Total BMD, percent difference from Vehicle Control (10 mg/kg/day): 0.1%
pQCT femur Length, percent difference from Vehicle Control (10 mg/kg/day): −0.4%
pQCT femur metaphysis C/SC BMC, percent difference from Vehicle Control (10 mg/kg/day): 6.2%
pQCT femur metaphysis C/SC BMD, percent difference from Vehicle Control (10 mg/kg/day): 2.0%
pQCT femur metaphysis Total Area, percent difference from Vehicle Control (10 mg/kg/day): 4.4%
pQCT femur metaphysis Total BMC, percent difference from Vehicle Control (10 mg/kg/day): 7.8%
pQCT femur metaphysis Total BMD, percent difference from Vehicle Control (10 mg/kg/day): 3.5%
pQCT femur metaphysis Trabecular BMC, percent difference from Vehicle Control (10 mg/kg/day): 14.7%
pQCT femur metaphysis Trabecular BMD, percent difference from Vehicle Control (10 mg/kg/day): 9.9%
pQCT femur (diaphysis) CSMI (10 mg/kg/day): 5.0 mm^4
pQCT femur (diaphysis) Cortical Area (10 mg/kg/day): 6.5 mm^2
pQCT femur (diaphysis) Cortical BMC (10 mg/kg/day): 8.5 mg/mm
pQCT femur (diaphysis) Cortical BMD (10 mg/kg/day): 1312.6 mg/cm^3
pQCT femur (diaphysis) Cortical Thickness (10 mg/kg/day): 0.76 mm
pQCT femur (diaphysis) Endosteal Circumference (10 mg/kg/day): 6.2 mm
pQCT femur (diaphysis) Periosteal Circumference (10 mg/kg/day): 10.8 mm
pQCT femur (diaphysis) Total Area (10 mg/kg/day): 9.6 mm^2
pQCT femur (diaphysis) Total BMC (10 mg/kg/day): 9.1 mg/mm
pQCT femur (diaphysis) Total BMD (10 mg/kg/day): 955.6 mg/cm^3
pQCT femur Length (10 mg/kg/day): 37.0 mm
pQCT femur metaphysis C/SC (Cortical/Subcortical) BMC (10 mg/kg/day): 10.1 mg/mm
pQCT femur metaphysis C/SC (Cortical/Subcortical) BMD (10 mg/kg/day): 1054.0 mg/cm^3
pQCT femur metaphysis Total Area (10 mg/kg/day): 16.0 mm^2
pQCT femur metaphysis Total BMC (10 mg/kg/day): 12.6 mg/mm
pQCT femur metaphysis Total BMD (10 mg/kg/day): 791.1 mg/cm^3
pQCT femur metaphysis Trabecular BMC (10 mg/kg/day): 2.5 mg/mm
pQCT femur metaphysis Trabecular BMD (10 mg/kg/day): 396.9 mg/cm^3
pQCT femur (diaphysis) CSMI, percent difference from Vehicle Control (50 mg/kg/day): −3.0%
pQCT femur (diaphysis) Cortical Area, percent difference from Vehicle Control (50 mg/kg/day): 0.2%
pQCT femur (diaphysis) Cortical BMC, percent difference from Vehicle Control (50 mg/kg/day): 1.2%
pQCT femur (diaphysis) Cortical BMD, percent difference from Vehicle Control (50 mg/kg/day): 1.0%
pQCT femur (diaphysis) Cortical Thickness, percent difference from Vehicle Control (50 mg/kg/day): 3.5%
pQCT femur (diaphysis) Endosteal Circumference, percent difference from Vehicle Control (50 mg/kg/day): −5.6%
pQCT femur (diaphysis) Periosteal Circumference, percent difference from Vehicle Control (50 mg/kg/day): −2.1%
pQCT femur (diaphysis) Total Area, percent difference from Vehicle Control (50 mg/kg/day): −3.4%
pQCT femur (diaphysis) Total BMC, percent difference from Vehicle Control (50 mg/kg/day): 0.0%
pQCT femur (diaphysis) Total BMD, percent difference from Vehicle Control (50 mg/kg/day): 3.5%
pQCT femur Length, percent difference from Vehicle Control (50 mg/kg/day): −0.4%
pQCT femur metaphysis C/SC BMC, percent difference from Vehicle Control (50 mg/kg/day): 4.0%
pQCT femur metaphysis C/SC BMD, percent difference from Vehicle Control (50 mg/kg/day): 7.0%
pQCT femur metaphysis Total Area, percent difference from Vehicle Control (50 mg/kg/day): −2.7%
pQCT femur metaphysis Total BMC, percent difference from Vehicle Control (50 mg/kg/day): 5.1%
pQCT femur metaphysis Total BMD, percent difference from Vehicle Control (50 mg/kg/day): 8.0%
pQCT femur metaphysis Trabecular BMC, percent difference from Vehicle Control (50 mg/kg/day): 9.7%
pQCT femur metaphysis Trabecular BMD, percent difference from Vehicle Control (50 mg/kg/day): 12.3%
pQCT femur (diaphysis) CSMI (50 mg/kg/day): 4.6 mm^4
pQCT femur (diaphysis) Cortical Area (50 mg/kg/day): 6.4 mm^2
pQCT femur (diaphysis) Cortical BMC (50 mg/kg/day): 8.4 mg/mm
pQCT femur (diaphysis) Cortical BMD (50 mg/kg/day): 1319.4 mg/cm^3
pQCT femur (diaphysis) Cortical Thickness (50 mg/kg/day): 0.78 mm
pQCT femur (diaphysis) Endosteal Circumference (50 mg/kg/day): 5.7 mm
pQCT femur (diaphysis) Periosteal Circumference (50 mg/kg/day): 10.4 mm
pQCT femur (diaphysis) Total Area (50 mg/kg/day): 9.0 mm^2
pQCT femur (diaphysis) Total BMC (50 mg/kg/day): 8.8 mg/mm
pQCT femur (diaphysis) Total BMD (50 mg/kg/day): 988.0 mg/cm^3
pQCT femur Length (50 mg/kg/day): 37.0 mm
pQCT femur metaphysis C/SC (Cortical/Subcortical) BMC (50 mg/kg/day): 9.9 mg/mm
pQCT femur metaphysis C/SC (Cortical/Subcortical) BMD (50 mg/kg/day): 1105.5 mg/cm^3
pQCT femur metaphysis Total Area (50 mg/kg/day): 14.9 mm^2
pQCT femur metaphysis Total BMC (50 mg/kg/day): 12.3 mg/mm
pQCT femur metaphysis Total BMD (50 mg/kg/day): 825.3 mg/cm^3
pQCT femur metaphysis Trabecular BMC (50 mg/kg/day): 2.4 mg/mm
pQCT femur metaphysis Trabecular BMD (50 mg/kg/day): 405.3 mg/cm^3

From US20120270819A1, “USE OF COMPOUNDS WITH SGLT-1/SGLT-2 INHIBITOR ACTIVITY FOR PRODUCING MEDICAMENTS FOR TREATMENT OF BONE DISEASE” (SANOFI, priority 2009, published 2012)
